Results published in patent EP0908457B1, “3-(1,2-benzisothiazol- and isoxazol-5-Y1)-2,4(1H,3H)-pyrimidinedione or thione and 3-(1,2-benzisothiazol- and isoxazol-5-y1)-4(3H)-pyrimidinone or thione herbicidal agents” (BASF AKTIENGESELLSCHAFT, priority 1997, dated 1999).

Key:
[1] = tested on: Echinochloa oryzoides (Ard.) Fritsch.; assay: Preemergence weed control under flooded paddy conditions, ECHORC (Watergrass (Calif.)); format: in vivo; settings: preemergence, flooded paddy, rated three to four weeks after treatment; note: meaning of each grade not given here
Cyperus iria [2] = assay: Preemergence weed control under flooded paddy conditions, CYPIR (Rice Flatsedge); format: in vivo; settings: preemergence, flooded paddy, rated three to four weeks after treatment; note: meaning of each grade not given here
[3] = tested on: Cyperus serotinus, Rottb.; assay: Preemergence weed control under flooded paddy conditions, CYPSE (Flatsedge); format: in vivo; settings: preemergence, rated three to four weeks after treatment; note: meaning of each grade not given here
[4] = tested on: Monochoria vaginalis, Presl.; assay: Preemergence weed control under flooded paddy conditions, MOOVA (Monochoria); format: in vivo; settings: preemergence, flooded paddy, rated three to four weeks after treatment; note: meaning of each grade not given here
Sagittaria pygmaea, L. [5] = assay: Preemergence weed control under flooded paddy conditions, SAGPY (Arrowhead (Pygmaea)); format: in vivo; settings: preemergence, flooded paddy, rated three to four weeks after treatment; note: meaning of each grade not given here
[6] = tested on: Echinochloa oryzoides (Ard.) Fritsch.; assay: Postemergence weed control under flooded paddy conditions, ECHORC (Watergrass (Calif.)); format: in vivo; settings: rated three to four weeks after treatment
Cyperus iria [7] = assay: Postemergence weed control under flooded paddy conditions, CYPIR (Rice Flatsedge); format: in vivo; settings: rated three to four weeks after treatment
[8] = tested on: Cyperus serotinus, Rottb.; assay: Postemergence weed control under flooded paddy conditions, CYPSE (Flatsedge); format: in vivo; settings: rated three to four weeks after treatment
[9] = tested on: Monochoria vaginalis, Presl.; assay: Postemergence weed control under flooded paddy conditions, MOOVA (Monochoria); format: in vivo; settings: rated three to four weeks after treatment
Sagittaria pygmaea, L. [10] = assay: Postemergence weed control under flooded paddy conditions, SAGPY (Arrowhead (Pygmaea)); format: in vivo; settings: rated three to four weeks after treatment
[11] = tested on: Oryza sativa, (L.) Tebonnet; assay: Rice tolerance to post-transplant applications under flooded paddy conditions (Example 187), ORYSAT (Rice, Tebonnet); settings: rated three to four weeks after treatment
[12] = tested on: Oryza sativa, (L.) Tebonnet; assay: Rice tolerance to post-transplant applications under flooded paddy conditions (Example 188), ORYSAT (Rice, Tebonnet); settings: rated three to four weeks after treatment

Cc1nsc2ccc(-n3c(=O)cc(C(F)(F)F)n(C)c3=O)cc12 [Example 6, 1-Methyl-3-(3-methyl-1,2-benzisothiazol-5-yl)-6-(trifluoromethyl)-2,4(1H,3H)-pyrimidinedione]
herbicidal effect rating, ECHORC ([1]; 0.0625 kg/ha): 6.0 | herbicidal effect rating, ECHORC ([1]; 0.1250 kg/ha): 8.0 | herbicidal effect rating, ECHORC ([1]; 0.2500 kg/ha): 9.0 | herbicidal effect rating, ECHORC ([1]; 0.5000 kg/ha): 9.0 | herbicidal effect rating, CYPIR (Cyperus iria [2]; 0.0625 kg/ha): 9.0 | herbicidal effect rating, CYPIR (Cyperus iria [2]; 0.1250 kg/ha): 9.0 | herbicidal effect rating, CYPIR (Cyperus iria [2]; 0.2500 kg/ha): 9.0 | herbicidal effect rating, CYPIR (Cyperus iria [2]; 0.5000 kg/ha): 9.0 | herbicidal effect rating, CYPSE ([3]; 0.0625 kg/ha): 4.0 | herbicidal effect rating, CYPSE ([3]; 0.1250 kg/ha): 7.0 | herbicidal effect rating, CYPSE ([3]; 0.2500 kg/ha): 9.0 | herbicidal effect rating, CYPSE ([3]; 0.5000 kg/ha): 9.0 | herbicidal effect rating, MOOVA ([4]; 0.0625 kg/ha): 9.0 | herbicidal effect rating, MOOVA ([4]; 0.1250 kg/ha): 9.0 | herbicidal effect rating, MOOVA ([4]; 0.2500 kg/ha): 9.0 | herbicidal effect rating, MOOVA ([4]; 0.5000 kg/ha): 9.0 | herbicidal effect rating, SAGPY (Sagittaria pygmaea, L. [5]; 0.0625 kg/ha): 4.0 | herbicidal effect rating, SAGPY (Sagittaria pygmaea, L. [5]; 0.1250 kg/ha): 7.0 | herbicidal effect rating, SAGPY (Sagittaria pygmaea, L. [5]; 0.2500 kg/ha): 7.0 | herbicidal effect rating, SAGPY (Sagittaria pygmaea, L. [5]; 0.5000 kg/ha): 9.0 | herbicidal effect rating, ECHORC ([6]; Rate 0.0313 kg/ha): 4.0 | herbicidal effect rating, ECHORC ([6]; Rate 0.0625 kg/ha): 7.0 | herbicidal effect rating, ECHORC ([6]; Rate 0.1250 kg/ha): 9.0 | herbicidal effect rating, ECHORC ([6]; Rate 0.2500 kg/ha): 9.0 | herbicidal effect rating, ECHORC ([6]; Rate 0.5000 kg/ha): 9.0 | herbicidal effect rating, CYPIR (Cyperus iria [7]; Rate 0.0313 kg/ha): 9.0 | herbicidal effect rating, CYPIR (Cyperus iria [7]; Rate 0.0625 kg/ha): 9.0 | herbicidal effect rating, CYPIR (Cyperus iria [7]; Rate 0.1250 kg/ha): 9.0 | herbicidal effect rating, CYPIR (Cyperus iria [7]; Rate 0.2500 kg/ha): 9.0 | herbicidal effect rating, CYPIR (Cyperus iria [7]; Rate 0.5000 kg/ha): 9.0 | herbicidal effect rating, CYPSE ([8]; Rate 0.0313 kg/ha): 0.0 | herbicidal effect rating, CYPSE ([8]; Rate 0.0625 kg/ha): 2.0 | herbicidal effect rating, CYPSE ([8]; Rate 0.1250 kg/ha): 7.0 | herbicidal effect rating, CYPSE ([8]; Rate 0.2500 kg/ha): 7.0 | herbicidal effect rating, CYPSE ([8]; Rate 0.5000 kg/ha): 9.0 | herbicidal effect rating, MOOVA ([9]; Rate 0.0313 kg/ha): 9.0 | herbicidal effect rating, MOOVA ([9]; Rate 0.0625 kg/ha): 9.0 | herbicidal effect rating, MOOVA ([9]; Rate 0.1250 kg/ha): 9.0 | herbicidal effect rating, MOOVA ([9]; Rate 0.2500 kg/ha): 9.0 | herbicidal effect rating, MOOVA ([9]; Rate 0.5000 kg/ha): 9.0 | herbicidal effect rating, SAGPY (Sagittaria pygmaea, L. [10]; Rate 0.0313 kg/ha): 2.0 | herbicidal effect rating, SAGPY (Sagittaria pygmaea, L. [10]; Rate 0.0625 kg/ha): 4.0 | herbicidal effect rating, SAGPY (Sagittaria pygmaea, L. [10]; Rate 0.1250 kg/ha): 6.0 | herbicidal effect rating, SAGPY (Sagittaria pygmaea, L. [10]; Rate 0.2500 kg/ha): 8.0 | herbicidal effect rating, SAGPY (Sagittaria pygmaea, L. [10]; Rate 0.5000 kg/ha): 9.0 | herbicidal effect rating, ORYSAT (rice tolerance) ([11]; 0.0625 kg/ha): 8.0 | herbicidal effect rating, ORYSAT (rice tolerance) ([11]; 0.1250 kg/ha): 8.0 | herbicidal effect rating, ORYSAT (rice tolerance) ([11]; 0.2500 kg/ha): 8.0 | herbicidal effect rating, ORYSAT (rice tolerance) ([11]; 0.5000 kg/ha): 8.0 | herbicidal effect rating, ORYSAT (rice tolerance) ([12]; Rate 0.0313 kg/ha): 4.0 | herbicidal effect rating, ORYSAT (rice tolerance) ([12]; Rate 0.0625 kg/ha): 4.0 | herbicidal effect rating, ORYSAT (rice tolerance) ([12]; Rate 0.1250 kg/ha): 9.0 | herbicidal effect rating, ORYSAT (rice tolerance) ([12]; Rate 0.2500 kg/ha): 9.0 | herbicidal effect rating, ORYSAT (rice tolerance) ([12]; Rate 0.5000 kg/ha): 9.0
